According to US10653806B2, “Homomultivalent and heteromultivalent inhibitors of prostate specific membrane antigen (PSMA) and uses thereof” (THE JOHNS HOPKINS UNIVERSITY, priority 2011, dated 2020):

Assays:
PSMA = target: T1, PSMA (Homo sapiens, UniProt Q04609); experiment: fluorescence-based PSMA inhibition assay (NAAG hydrolysis, LNCaP cell lysates, Amplex Red); assay type: biochemical; conditions: for Ki: PSMA inhibitory activity, Cheng-Prusoff conversion
T1 construct: endogenous in cells; host or cells: LNCaP cell lysate
T1 sequence (Q04609 whole entry): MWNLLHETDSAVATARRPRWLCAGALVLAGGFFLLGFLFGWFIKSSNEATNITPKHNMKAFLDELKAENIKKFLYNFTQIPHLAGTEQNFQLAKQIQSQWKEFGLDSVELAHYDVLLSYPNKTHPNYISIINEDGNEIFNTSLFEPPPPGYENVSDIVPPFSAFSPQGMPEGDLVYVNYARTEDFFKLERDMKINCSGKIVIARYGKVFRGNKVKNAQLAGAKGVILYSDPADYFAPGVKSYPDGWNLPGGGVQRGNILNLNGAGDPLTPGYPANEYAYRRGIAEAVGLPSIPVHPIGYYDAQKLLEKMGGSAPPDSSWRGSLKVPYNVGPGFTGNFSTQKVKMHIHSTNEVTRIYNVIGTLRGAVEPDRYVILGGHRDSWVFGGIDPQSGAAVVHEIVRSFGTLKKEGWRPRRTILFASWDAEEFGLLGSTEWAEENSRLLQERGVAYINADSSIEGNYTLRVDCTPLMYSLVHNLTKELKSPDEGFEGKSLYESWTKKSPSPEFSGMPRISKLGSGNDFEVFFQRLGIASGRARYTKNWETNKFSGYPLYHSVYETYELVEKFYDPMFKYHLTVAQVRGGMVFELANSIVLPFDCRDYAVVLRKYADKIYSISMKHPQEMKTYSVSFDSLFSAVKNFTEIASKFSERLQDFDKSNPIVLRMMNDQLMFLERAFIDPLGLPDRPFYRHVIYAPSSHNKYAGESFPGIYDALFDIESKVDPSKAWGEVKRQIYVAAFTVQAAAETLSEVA

[1] = tested on: PSMA+PIP and PSMA-flu tumors in a male SCID mouse; conditions: 44.4 MBq (1.2 mCi) intravenously, imaged repeatedly over an eight day period

Ki (PSMA) [nM] | increase in binding affinity (Ki) compared to monovalent 1 (PSMA; relative to compound 1) [fold] | SMILES | radiotracer uptake on SPECT-CT [1]
0.1 | 5 | NCCCCC(NC(=O)C(CCCCNC(=O)c1cn(CCCCC(NC(=O)CCCCCCC(=O)NCCCC[C@H](NC(=O)NC(CCC(=O)O)C(=O)O)C(=O)O)C(=O)O)nn1)NC(=O)c1nn[nH]c1CCCCC(NC(=O)CCCCCCC(=O)NCCCC[C@H](NC(=O)NC(CCC(=O)O)C(=O)O)C(=O)O)C(=O)O)C(=O)O (stereo partly drawn) [Compound 2, (7S)-26-(4-((1-((5-amino-1-carboxypenty 1)amino)-1-oxo-6-(1-((7S)-1,3,7,22-tetracarboxy-5,13,20-trioxo-4,6,12,21-tetraazahexacosan-26-yl) 1H-1,2,3-triazole-4-carboxamido)hexan-2-yl)carbamoyl)-1H-1,2,3-triazol-5-yl)-5,13,20-trioxo-4,6,12,21-tetraazahexacosane-1,3,7,22-tetracarboxylic acid] | 
0.08 |  | O=C(O)CCC(NC(=O)N[C@@H](CCCCNC(=O)CCCCCCC(=O)NC(CCCCc1[nH]nnc1C(=O)NC(CCCCNC(=O)c1cn(CCCCC(NC(=O)CCCCCCC(=O)NCCCC[C@H](NC(=O)NC(CCC(=O)O)C(=O)O)C(=O)O)C(=O)O)nn1)C(=O)NC(CCCCNC(=O)CN1CCN(CC(=O)O)CCN(CC(=O)O)CCN(CC(=O)O)CC1)C(=O)O)C(=O)O)C(=O)O)C(=O)O (stereo partly drawn) [Compound 3, (7S)-26-(4-((1-((1-carboxy-5-(2-(4,7,10-tris(carboxymethyl)-1,4,7,10-tetraazacyclododecan-1-yl)acetamido)pentyl)amino)-1-oxo-6-(1-((7 S)-1,3,7,22-tetracarboxy-5,13,20-trioxo-4,6,12,21-tetraazahexacosan-26-yl)-1H-1,2,3-triazole-4-carboxamido)hexan-2-yl)carbamoyl)-1H-1,2,3-triazol-5-yl)-5,13,20-trioxo-4,6,12,21-tetraazahexacosane-1,3,7,22-tetracarboxylic acid] | 
 |  | O=C(O)CC[C@H](NC(=O)N[C@@H](CCCCNC(=O)CCCCCCC(=O)NC(CCCCn1cc(C(=O)NCCCCC(NC(=O)c2cn(CCCCC(NC(=O)CCCCCCC(=O)NCCCC[C@H](NC(=O)N[C@@H](CCC(=O)O)C(=O)O)C(=O)O)C(=O)O)nn2)C(=O)NC(CCCCNC(=O)CN2CCN(CC(=O)O)CCN(CC(=O)O)CCN(CC(=O)O)CC2)C(=O)O)nn1)C(=O)O)C(=O)O)C(=O)O.[111In+3] (stereo partly shown) [[^111In]3] | Intense radiotracer uptake was seen only in the PSMA+PIP tumors and in the kidneys
